Data on 24 molecules can be found in BindingDB's records for doi:10.1016/s0960-894x(01)00095-6 (Seoul National University, 2001).

In the first experiment the target is Isoleucine--tRNA ligase (Escherichia coli) (UniProt P00956). Kind of experiment: Inhibition of [3H]isoleucyl incorporation by Escherichia coli isoleucyl-tRNA synthetase (IleRS).
Chain of Isoleucine--tRNA ligase (Escherichia coli) (P00956 whole entry, looked up): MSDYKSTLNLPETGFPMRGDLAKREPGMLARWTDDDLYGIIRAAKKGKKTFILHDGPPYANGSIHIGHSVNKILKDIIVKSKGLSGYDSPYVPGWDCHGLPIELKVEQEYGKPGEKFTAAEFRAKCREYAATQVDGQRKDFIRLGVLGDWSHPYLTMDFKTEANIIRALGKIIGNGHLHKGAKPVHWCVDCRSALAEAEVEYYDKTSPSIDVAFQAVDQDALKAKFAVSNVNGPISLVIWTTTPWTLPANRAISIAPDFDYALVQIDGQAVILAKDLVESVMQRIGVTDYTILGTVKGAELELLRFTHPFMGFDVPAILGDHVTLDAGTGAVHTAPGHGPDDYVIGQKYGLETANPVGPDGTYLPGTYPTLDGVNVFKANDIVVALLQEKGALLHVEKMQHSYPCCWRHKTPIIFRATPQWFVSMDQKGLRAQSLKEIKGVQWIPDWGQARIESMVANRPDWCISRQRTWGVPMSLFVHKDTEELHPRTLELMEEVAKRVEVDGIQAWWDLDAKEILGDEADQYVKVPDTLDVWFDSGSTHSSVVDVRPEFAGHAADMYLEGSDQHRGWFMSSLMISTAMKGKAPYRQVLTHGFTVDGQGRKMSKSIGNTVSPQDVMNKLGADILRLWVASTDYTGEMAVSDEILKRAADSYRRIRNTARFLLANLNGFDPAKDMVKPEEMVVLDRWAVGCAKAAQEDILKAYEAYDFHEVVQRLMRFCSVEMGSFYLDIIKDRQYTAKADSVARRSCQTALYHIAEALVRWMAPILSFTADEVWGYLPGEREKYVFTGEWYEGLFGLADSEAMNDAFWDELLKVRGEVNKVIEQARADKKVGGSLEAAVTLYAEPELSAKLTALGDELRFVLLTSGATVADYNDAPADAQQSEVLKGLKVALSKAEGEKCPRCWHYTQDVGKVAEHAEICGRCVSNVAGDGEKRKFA
Consider `CC[C@H](C)[C@H](N)C(=O)N(O)C[C@H]1O[C@@H](CCn2nnc(-c3ccccc3)n2)[C@H](O)[C@@H]1O` [(1S,2S)-1-({(2R,3S,4R,5S)-3,4-Dihydroxy-5-[2-(5-phenyl-tetrazol-2-yl)-ethyl]-tetrahydro-furan-2-ylmethyl}-hydroxy-carbamoyl)-2-methyl-butyl-ammonium], for which the IC50 (usually the concentration that inhibits the measured activity by half) was more than 128 µM.

Molecule `CC[C@H](C)[C@H](N)C(=O)N(O)C[C@H]1O[C@@H](CCn2cnc3c(N)ncnc32)[C@H](O)[C@@H]1O` [(1S,2S)-1-({(2R,3S,4R,5S)-5-[2-(6-Amino-purin-9-yl)-ethyl]-3,4-dihydroxy-tetrahydro-furan-2-ylmethyl}-hydroxy-carbamoyl)-2-methyl-butyl-ammonium] had an IC50 of more than 128 µM.

Molecule `CC[C@H](C)[C@H](N)C(=O)N(O)C[C@H]1O[C@@H](CCn2cnc3c(NCc4ccccc4)ncnc32)[C@H](O)[C@@H]1O` [(1S,2S)-1-({(2R,3S,4R,5S)-5-[2-(6-Benzylamino-purin-9-yl)-ethyl]-3,4-dihydroxy-tetrahydro-furan-2-ylmethyl}-hydroxy-carbamoyl)-2-methyl-butyl-ammonium] registered an IC50 of more than 128 µM.

The molecule `CC[C@H](C)[C@H](N)C(=O)OC[C@H]1O[C@@H](n2cnc3c(N)ncnc32)[C@H](O)[C@@H]1O` [(1S,2S)-1-[(2R,3S,4R,5R)-5-(6-Amino-purin-9-yl)-3,4-dihydroxy-tetrahydro-furan-2-ylmethoxycarbonyl]-2-methyl-butyl-ammonium] came in with an IC50 of 183 µM.

Turning to `CC[C@H](C)[C@H](N)C(=O)OC[C@H]1O[C@@H](Cn2cnc3c(N)ncnc32)[C@H](O)[C@@H]1O` [(1S,2S)-1-[(2R,3S,4R,5S)-5-(6-Amino-purin-9-ylmethyl)-3,4-dihydroxy-tetrahydro-furan-2-ylmethoxycarbonyl]-2-methyl-butyl-ammonium], the IC50 is more than 128 µM.

`CC[C@H](C)[C@H](N)C(=O)OC[C@H]1O[C@@H](CCn2nnc(-c3ccccc3)n2)[C@H](O)[C@@H]1O` [(1S,2S)-1-{(2R,3S,4R,5S)-3,4-Dihydroxy-5-[2-(5-phenyl-tetrazol-2-yl)-ethyl]-tetrahydro-furan-2-ylmethoxycarbonyl}-2-methyl-butyl-ammonium] had an IC50 of 63.6 µM.

`CC[C@H](C)[C@H](N)C(=O)OC[C@H]1O[C@@H](CCn2cnc3c(N)ncnc32)[C@H](O)[C@@H]1O` [(1S,2S)-1-{(2R,3S,4R,5S)-5-[2-(6-Amino-purin-9-yl)-ethyl]-3,4-dihydroxy-tetrahydro-furan-2-ylmethoxycarbonyl}-2-methyl-butyl-ammonium] had an IC50 of more than 128 µM.

`CC[C@H](C)[C@H](N)C(=O)OC[C@H]1O[C@@H](CCn2cnc3c(NCc4ccccc4)ncnc32)[C@H](O)[C@@H]1O` [(1S,2S)-1-{(2R,3S,4R,5S)-5-[2-(6-Benzylamino-purin-9-yl)-ethyl]-3,4-dihydroxy-tetrahydro-furan-2-ylmethoxycarbonyl}-2-methyl-butyl-ammonium] showed an IC50 of 84 µM.

In turn, `CC[C@H](C)[C@H](N)C(=O)N(O)C[C@H]1O[C@@H](n2cnc3c(N)ncnc32)[C@H](O)[C@@H]1O` [(1S,2S)-1-{[(2R,3S,4R,5R)-5-(6-Amino-purin-9-yl)-3,4-dihydroxy-tetrahydro-furan-2-ylmethyl]-hydroxy-carbamoyl}-2-methyl-butyl-ammonium] yielded an IC50 of 181 µM.

Turning to `CC[C@H](C)[C@H](N)C(=O)N(O)C[C@H]1O[C@@H](Cn2cnc3c(N)ncnc32)[C@H](O)[C@@H]1O` [(1S,2S)-1-{[(2R,3S,4R,5S)-5-(6-Amino-purin-9-ylmethyl)-3,4-dihydroxy-tetrahydro-furan-2-ylmethyl]-hydroxy-carbamoyl}-2-methyl-butyl-ammonium], the IC50 is more than 128 µM.

The target in another experiment is Methionine--tRNA ligase (Escherichia coli) (UniProt P00959). Kind of experiment: Inhibition of [35S]methionyl incorporation by Escherichia coli methionyl-tRNA synthetase (MetRS).
Chain of Methionine--tRNA ligase (Escherichia coli) (P00959 whole entry, looked up): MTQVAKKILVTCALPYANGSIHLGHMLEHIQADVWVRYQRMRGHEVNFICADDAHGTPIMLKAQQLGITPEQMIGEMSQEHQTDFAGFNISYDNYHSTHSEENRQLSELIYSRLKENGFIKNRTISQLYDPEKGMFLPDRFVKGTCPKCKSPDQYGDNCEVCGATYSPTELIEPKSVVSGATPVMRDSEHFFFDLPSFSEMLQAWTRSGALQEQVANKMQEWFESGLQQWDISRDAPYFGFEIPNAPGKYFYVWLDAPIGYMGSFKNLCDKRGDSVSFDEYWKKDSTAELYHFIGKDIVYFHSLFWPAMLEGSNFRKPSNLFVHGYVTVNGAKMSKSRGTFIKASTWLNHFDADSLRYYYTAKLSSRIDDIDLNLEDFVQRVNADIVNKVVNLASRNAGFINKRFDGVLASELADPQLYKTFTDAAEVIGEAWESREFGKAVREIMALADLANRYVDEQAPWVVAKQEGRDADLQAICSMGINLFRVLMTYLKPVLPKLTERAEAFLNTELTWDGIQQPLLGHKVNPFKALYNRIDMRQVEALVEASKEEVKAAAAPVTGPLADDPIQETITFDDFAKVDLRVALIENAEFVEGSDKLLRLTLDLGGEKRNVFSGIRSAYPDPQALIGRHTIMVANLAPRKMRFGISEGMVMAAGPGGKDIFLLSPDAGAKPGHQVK
Turning to `CSCC[C@H](N)C(=O)N(O)C[C@H]1O[C@@H](CCn2nnc(-c3ccccc3)n2)[C@H](O)[C@@H]1O` [(S)-1-({(2R,3S,4R,5S)-3,4-Dihydroxy-5-[2-(5-phenyl-tetrazol-2-yl)-ethyl]-tetrahydro-furan-2-ylmethyl}-hydroxy-carbamoyl)-3-methylsulfanyl-propyl-ammonium], the IC50 was determined as 34 µM. That is a double-digit micromolar value.

For the molecule `CSCC[C@H](N)C(=O)N(O)C[C@H]1O[C@@H](CCn2cnc3c(N)ncnc32)[C@H](O)[C@@H]1O` [(S)-1-({(2R,3S,4R,5S)-5-[2-(6-Amino-purin-9-yl)-ethyl]-3,4-dihydroxy-tetrahydro-furan-2-ylmethyl}-hydroxy-carbamoyl)-3-methylsulfanyl-propyl-ammonium], the IC50 was determined as 56 µM.

`CSCC[C@H](N)C(=O)N(O)C[C@H]1O[C@@H](CCn2cnc3c(NCc4ccccc4)ncnc32)[C@H](O)[C@@H]1O` [(S)-1-({(2R,3S,4R,5S)-5-[2-(6-Benzylamino-purin-9-yl)-ethyl]-3,4-dihydroxy-tetrahydro-furan-2-ylmethyl}-hydroxy-carbamoyl)-3-methylsulfanyl-propyl-ammonium] registered a half-maximal inhibitory concentration (IC50) of 23 µM.

Consider `CSCC[C@H](N)C(=O)OC[C@H]1O[C@@H](n2cnc3c(N)ncnc32)[C@H](O)[C@@H]1O` [(S)-1-[(2R,3S,4R,5R)-5-(6-Amino-purin-9-yl)-3,4-dihydroxy-tetrahydro-furan-2-ylmethoxycarbonyl]-3-methylsulfanyl-propyl-ammonium], for which half-maximal inhibition (IC50) required 5 µM.

`CSCC[C@H](N)C(=O)OC[C@H]1O[C@@H](Cn2nnc(-c3ccccc3)n2)[C@H](O)[C@@H]1O` [(S)-1-[(2R,3S,4R,5S)-3,4-Dihydroxy-5-(5-phenyl-tetrazol-2-ylmethyl)-tetrahydro-furan-2-ylmethoxycarbonyl]-3-methylsulfanyl-propyl-ammonium] registered an IC50 of 12.2 µM. Against the preceding molecule, the IC50 is about 2.4-fold higher.

`CSCC[C@H](N)C(=O)OC[C@H]1O[C@@H](Cn2cnc3c(N)ncnc32)[C@H](O)[C@@H]1O` [(S)-1-[(2R,3S,4R,5S)-5-(6-Amino-purin-9-ylmethyl)-3,4-dihydroxy-tetrahydro-furan-2-ylmethoxycarbonyl]-3-methylsulfanyl-propyl-ammonium] returned an IC50 of 3.6 µM.

`CSCC[C@H](N)C(=O)OC[C@H]1O[C@@H](Cn2cnc3c(NCc4ccccc4)ncnc32)[C@H](O)[C@@H]1O` [(S)-1-[(2R,3S,4R,5S)-5-(6-Benzylamino-purin-9-ylmethyl)-3,4-dihydroxy-tetrahydro-furan-2-ylmethoxycarbonyl]-3-methylsulfanyl-propyl-ammonium] registered an IC50 of 16.5 µM.

For `CSCC[C@H](N)C(=O)OC[C@H]1O[C@@H](CCn2nnc(-c3ccccc3)n2)[C@H](O)[C@@H]1O` [(S)-1-{(2R,3S,4R,5S)-3,4-Dihydroxy-5-[2-(5-phenyl-tetrazol-2-yl)-ethyl]-tetrahydro-furan-2-ylmethoxycarbonyl}-3-methylsulfanyl-propyl-ammonium], the IC50 is more than 256 µM.

With `CSCC[C@H](N)C(=O)OC[C@H]1O[C@@H](CCn2cnc3c(N)ncnc32)[C@H](O)[C@@H]1O` [(S)-1-{(2R,3S,4R,5S)-5-[2-(6-Amino-purin-9-yl)-ethyl]-3,4-dihydroxy-tetrahydro-furan-2-ylmethoxycarbonyl}-3-methylsulfanyl-propyl-ammonium], it took 8.3 µM to reach half-maximal inhibition (IC50).

Molecule `CSCC[C@H](N)C(=O)OC[C@H]1O[C@@H](CCn2cnc3c(NCc4ccccc4)ncnc32)[C@H](O)[C@@H]1O` [(S)-1-{(2R,3S,4R,5S)-5-[2-(6-Benzylamino-purin-9-yl)-ethyl]-3,4-dihydroxy-tetrahydro-furan-2-ylmethoxycarbonyl}-3-methylsulfanyl-propyl-ammonium] displayed an IC50 of 33.2 µM.

Molecule `CSCC[C@H](N)C(=O)N(O)C[C@H]1O[C@@H](n2cnc3c(N)ncnc32)[C@H](O)[C@@H]1O` [(S)-1-{[(2R,3S,4R,5R)-5-(6-Amino-purin-9-yl)-3,4-dihydroxy-tetrahydro-furan-2-ylmethyl]-hydroxy-carbamoyl}-3-methylsulfanyl-propyl-ammonium] gave an IC50 of 27 µM.

With `CSCC[C@H](N)C(=O)N(O)C[C@H]1O[C@@H](Cn2nnc(-c3ccccc3)n2)[C@H](O)[C@@H]1O` [(S)-1-{[(2R,3S,4R,5S)-3,4-Dihydroxy-5-(5-phenyl-tetrazol-2-ylmethyl)-tetrahydro-furan-2-ylmethyl]-hydroxy-carbamoyl}-3-methylsulfanyl-propyl-ammonium], half-maximal inhibition (IC50) required 17 µM.

`CSCC[C@H](N)C(=O)N(O)C[C@H]1O[C@@H](Cn2cnc3c(N)ncnc32)[C@H](O)[C@@H]1O` [(S)-1-{[(2R,3S,4R,5S)-5-(6-Amino-purin-9-ylmethyl)-3,4-dihydroxy-tetrahydro-furan-2-ylmethyl]-hydroxy-carbamoyl}-3-methylsulfanyl-propyl-ammonium]: the IC50 was 26 µM. Against the preceding molecule, the IC50 is about 1.5-fold higher.

In the case of `CSCC[C@H](N)C(=O)N(O)C[C@H]1O[C@@H](Cn2cnc3c(NCc4ccccc4)ncnc32)[C@H](O)[C@@H]1O` [(S)-1-{[(2R,3S,4R,5S)-5-(6-Benzylamino-purin-9-ylmethyl)-3,4-dihydroxy-tetrahydro-furan-2-ylmethyl]-hydroxy-carbamoyl}-3-methylsulfanyl-propyl-ammonium], the IC50 came to 63 µM.
